Laboratory results taken from the NIST ThermoML archive (doi:10.1016/j.jct.2016.03.003).
Numbers after ± are expanded uncertainties.

Assay: mn = molality of the nth substance listed, in mol/kg
Conditions: 101.3 kPa, Liquid, Vibrating tube method

C[C@H](O)C(=O)[O-].C[C@H](O)C(=O)[O-].C[C@H](O)C(=O)[O-].[Al+3] [aluminium L-lactate] + O
Conditions | mass density [kg/m3]
278.15 K, m1 = 0.0016 | 1000.31 ± 0.42
278.15 K, m1 = 0.0033 | 1000.54 ± 0.42
278.15 K, m1 = 0.0065 | 1000.95 ± 0.42
278.15 K, m1 = 0.016 | 1002.1 ± 0.42
278.15 K, m1 = 0.0281 | 1003.54 ± 0.42
278.15 K, m1 = 0.0521 | 1006.26 ± 0.42
278.15 K, m1 = 0.0995 | 1011.5 ± 0.42
278.15 K, m1 = 0.1996 | 1022.22 ± 0.42
278.15 K, m1 = 0.3045 | 1032.98 ± 0.42
278.15 K, m1 = 0.4021 | 1042.51 ± 0.42
278.15 K, m1 = 0.5059 | 1052.17 ± 0.42
278.15 K, m1 = 0.5991 | 1060.59 ± 0.42
278.15 K, m1 = 0.7147 | 1070.67 ± 0.42
283.15 K, m1 = 0.0016 | 1000.07 ± 0.45
283.15 K, m1 = 0.0033 | 1000.29 ± 0.42
283.15 K, m1 = 0.0065 | 1000.7 ± 0.42
283.15 K, m1 = 0.016 | 1001.82 ± 0.42
283.15 K, m1 = 0.0281 | 1003.24 ± 0.42
283.15 K, m1 = 0.0521 | 1005.92 ± 0.42
283.15 K, m1 = 0.0995 | 1011.1 ± 0.42
283.15 K, m1 = 0.1996 | 1021.72 ± 0.42
283.15 K, m1 = 0.3045 | 1032.35 ± 0.42
283.15 K, m1 = 0.4021 | 1041.79 ± 0.42
283.15 K, m1 = 0.5059 | 1051.34 ± 0.42
283.15 K, m1 = 0.5991 | 1059.68 ± 0.42
283.15 K, m1 = 0.7147 | 1069.65 ± 0.42
288.15 K, m1 = 0.0016 | 999.46 ± 0.45
288.15 K, m1 = 0.0033 | 999.69 ± 0.42
288.15 K, m1 = 0.0065 | 1000.09 ± 0.42
288.15 K, m1 = 0.016 | 1001.21 ± 0.42
288.15 K, m1 = 0.0281 | 1002.6 ± 0.42
288.15 K, m1 = 0.0521 | 1005.25 ± 0.42
288.15 K, m1 = 0.0995 | 1010.37 ± 0.42
288.15 K, m1 = 0.1996 | 1020.89 ± 0.42
288.15 K, m1 = 0.3045 | 1031.43 ± 0.42
288.15 K, m1 = 0.4021 | 1040.77 ± 0.42
288.15 K, m1 = 0.5059 | 1050.24 ± 0.42
288.15 K, m1 = 0.5991 | 1058.5 ± 0.42
288.15 K, m1 = 0.7147 | 1068.38 ± 0.42
293.15 K, m1 = 0.0016 | 998.56 ± 0.44
293.15 K, m1 = 0.0033 | 998.78 ± 0.42
293.15 K, m1 = 0.0065 | 999.18 ± 0.42
293.15 K, m1 = 0.016 | 1000.27 ± 0.42
293.15 K, m1 = 0.0281 | 1001.67 ± 0.42
293.15 K, m1 = 0.0521 | 1004.3 ± 0.42
293.15 K, m1 = 0.0995 | 1009.39 ± 0.42
293.15 K, m1 = 0.1996 | 1019.81 ± 0.42
293.15 K, m1 = 0.3045 | 1030.26 ± 0.42
293.15 K, m1 = 0.4021 | 1039.52 ± 0.42
293.15 K, m1 = 0.5059 | 1048.92 ± 0.42
293.15 K, m1 = 0.5991 | 1057.11 ± 0.42
293.15 K, m1 = 0.7147 | 1066.89 ± 0.42
298.15 K, m1 = 0.0016 | 997.37 ± 0.44
298.15 K, m1 = 0.0033 | 997.6 ± 0.42
298.15 K, m1 = 0.0065 | 997.99 ± 0.42
298.15 K, m1 = 0.016 | 999.09 ± 0.42
298.15 K, m1 = 0.0281 | 1000.46 ± 0.42
298.15 K, m1 = 0.0521 | 1003.09 ± 0.42
298.15 K, m1 = 0.0995 | 1008.13 ± 0.42
298.15 K, m1 = 0.1996 | 1018.48 ± 0.42
298.15 K, m1 = 0.3045 | 1028.85 ± 0.42
298.15 K, m1 = 0.4021 | 1038.07 ± 0.42
298.15 K, m1 = 0.5059 | 1047.37 ± 0.42
298.15 K, m1 = 0.5991 | 1055.51 ± 0.42
298.15 K, m1 = 0.7147 | 1065.25 ± 0.42
303.15 K, m1 = 0.0016 | 996 ± 0.44
303.15 K, m1 = 0.0033 | 996.22 ± 0.42
303.15 K, m1 = 0.0065 | 996.61 ± 0.42
303.15 K, m1 = 0.016 | 997.67 ± 0.42
303.15 K, m1 = 0.0281 | 999.04 ± 0.42
303.15 K, m1 = 0.0521 | 1001.64 ± 0.42
303.15 K, m1 = 0.0995 | 1006.64 ± 0.42
303.15 K, m1 = 0.1996 | 1016.92 ± 0.42
303.15 K, m1 = 0.3045 | 1027.23 ± 0.42
303.15 K, m1 = 0.4021 | 1036.37 ± 0.42
303.15 K, m1 = 0.5059 | 1045.62 ± 0.42
303.15 K, m1 = 0.5991 | 1053.7 ± 0.42
303.15 K, m1 = 0.7147 | 1063.36 ± 0.42
308.15 K, m1 = 0.0016 | 994.37 ± 0.44
308.15 K, m1 = 0.0033 | 994.59 ± 0.42
308.15 K, m1 = 0.0065 | 994.98 ± 0.42
308.15 K, m1 = 0.016 | 996.04 ± 0.42
308.15 K, m1 = 0.0281 | 997.4 ± 0.42
308.15 K, m1 = 0.0521 | 999.99 ± 0.42
308.15 K, m1 = 0.0995 | 1004.96 ± 0.42
308.15 K, m1 = 0.1996 | 1015.17 ± 0.42
308.15 K, m1 = 0.3045 | 1025.41 ± 0.42
308.15 K, m1 = 0.4021 | 1034.51 ± 0.42
308.15 K, m1 = 0.5059 | 1043.7 ± 0.42
308.15 K, m1 = 0.5991 | 1051.73 ± 0.42
308.15 K, m1 = 0.7147 | 1061.35 ± 0.42
313.15 K, m1 = 0.0016 | 992.55 ± 0.43
313.15 K, m1 = 0.0033 | 992.76 ± 0.42
313.15 K, m1 = 0.0065 | 993.14 ± 0.42
313.15 K, m1 = 0.016 | 994.21 ± 0.42
313.15 K, m1 = 0.0281 | 995.56 ± 0.42
313.15 K, m1 = 0.0521 | 998.12 ± 0.42
313.15 K, m1 = 0.0995 | 1003.06 ± 0.41
313.15 K, m1 = 0.1996 | 1013.23 ± 0.42
313.15 K, m1 = 0.3045 | 1023.41 ± 0.42
313.15 K, m1 = 0.4021 | 1032.44 ± 0.42
313.15 K, m1 = 0.5059 | 1041.59 ± 0.42
313.15 K, m1 = 0.5991 | 1049.59 ± 0.42
313.15 K, m1 = 0.7147 | 1059.14 ± 0.42
318.15 K, m1 = 0.0016 | 990.54 ± 0.43
318.15 K, m1 = 0.0033 | 990.75 ± 0.42
318.15 K, m1 = 0.0065 | 991.13 ± 0.42
318.15 K, m1 = 0.016 | 992.2 ± 0.42
318.15 K, m1 = 0.0281 | 993.53 ± 0.42
318.15 K, m1 = 0.0521 | 996.09 ± 0.42
318.15 K, m1 = 0.0995 | 1001 ± 0.41
318.15 K, m1 = 0.1996 | 1011.1 ± 0.41
318.15 K, m1 = 0.3045 | 1021.23 ± 0.42
318.15 K, m1 = 0.4021 | 1030.23 ± 0.42
318.15 K, m1 = 0.5059 | 1039.33 ± 0.42
318.15 K, m1 = 0.5991 | 1047.3 ± 0.42
318.15 K, m1 = 0.7147 | 1056.79 ± 0.42
323.15 K, m1 = 0.0016 | 988.37 ± 0.43
323.15 K, m1 = 0.0033 | 988.56 ± 0.42
323.15 K, m1 = 0.0065 | 988.95 ± 0.42
323.15 K, m1 = 0.016 | 990 ± 0.42
323.15 K, m1 = 0.0281 | 991.34 ± 0.42
323.15 K, m1 = 0.0521 | 993.87 ± 0.42
323.15 K, m1 = 0.0995 | 998.76 ± 0.41
323.15 K, m1 = 0.1996 | 1008.81 ± 0.41
323.15 K, m1 = 0.3045 | 1018.9 ± 0.42
323.15 K, m1 = 0.4021 | 1027.86 ± 0.42
323.15 K, m1 = 0.5059 | 1036.92 ± 0.42
323.15 K, m1 = 0.5991 | 1044.84 ± 0.42
323.15 K, m1 = 0.7147 | 1054.31 ± 0.42
328.15 K, m1 = 0.0016 | 986.02 ± 0.43
328.15 K, m1 = 0.0033 | 986.21 ± 0.42
328.15 K, m1 = 0.0065 | 986.59 ± 0.42
328.15 K, m1 = 0.016 | 987.65 ± 0.42
328.15 K, m1 = 0.0281 | 988.97 ± 0.42
328.15 K, m1 = 0.0521 | 991.49 ± 0.42
328.15 K, m1 = 0.0995 | 996.36 ± 0.41
328.15 K, m1 = 0.1996 | 1006.37 ± 0.41
328.15 K, m1 = 0.3045 | 1016.42 ± 0.41
328.15 K, m1 = 0.4021 | 1025.32 ± 0.42
328.15 K, m1 = 0.5059 | 1034.36 ± 0.42
328.15 K, m1 = 0.5991 | 1042.24 ± 0.42
328.15 K, m1 = 0.7147 | 1051.67 ± 0.42
333.15 K, m1 = 0.0016 | 983.53 ± 0.43
333.15 K, m1 = 0.0033 | 983.72 ± 0.42
333.15 K, m1 = 0.0065 | 984.09 ± 0.42
333.15 K, m1 = 0.016 | 985.14 ± 0.42
333.15 K, m1 = 0.0281 | 986.48 ± 0.42
333.15 K, m1 = 0.0521 | 988.97 ± 0.42
333.15 K, m1 = 0.0995 | 993.82 ± 0.41
333.15 K, m1 = 0.1996 | 1003.79 ± 0.41
333.15 K, m1 = 0.3045 | 1013.8 ± 0.41
333.15 K, m1 = 0.4021 | 1022.68 ± 0.41
333.15 K, m1 = 0.5059 | 1031.67 ± 0.42
333.15 K, m1 = 0.5991 | 1039.53 ± 0.42
333.15 K, m1 = 0.7147 | 1048.93 ± 0.42
338.15 K, m1 = 0.0016 | 980.88 ± 0.42
338.15 K, m1 = 0.0033 | 981.06 ± 0.42
338.15 K, m1 = 0.0065 | 981.45 ± 0.42
338.15 K, m1 = 0.016 | 982.49 ± 0.42
338.15 K, m1 = 0.0281 | 983.81 ± 0.42
338.15 K, m1 = 0.0521 | 986.3 ± 0.42
338.15 K, m1 = 0.0995 | 991.13 ± 0.41
338.15 K, m1 = 0.1996 | 1001.06 ± 0.41
338.15 K, m1 = 0.3045 | 1011.04 ± 0.41
338.15 K, m1 = 0.4021 | 1019.88 ± 0.41
338.15 K, m1 = 0.5059 | 1028.85 ± 0.42
338.15 K, m1 = 0.5991 | 1036.68 ± 0.42
338.15 K, m1 = 0.7147 | 1046.04 ± 0.42
343.15 K, m1 = 0.0016 | 978.11 ± 0.41
343.15 K, m1 = 0.0033 | 978.27 ± 0.42
343.15 K, m1 = 0.0065 | 978.67 ± 0.42
343.15 K, m1 = 0.016 | 979.71 ± 0.42
343.15 K, m1 = 0.0281 | 981.02 ± 0.42
343.15 K, m1 = 0.0521 | 983.51 ± 0.42
343.15 K, m1 = 0.0995 | 988.33 ± 0.41
343.15 K, m1 = 0.1996 | 998.2 ± 0.41
343.15 K, m1 = 0.3045 | 1008.14 ± 0.41
343.15 K, m1 = 0.4021 | 1017.05 ± 0.41
343.15 K, m1 = 0.5059 | 1025.9 ± 0.42
343.15 K, m1 = 0.5991 | 1033.73 ± 0.42
343.15 K, m1 = 0.7147 | 1043.05 ± 0.42
